Test results from patent US8445539B2, “Alpha-aminoamide derivatives useful in the treatment of psychiatric disorders” (priority 2007, dated 2013).

Experiments:
[1] = test system: MK-801-induced PPI disruption; test: Prepulse inhibition of startle with disruption by MK-801; assay type: in vivo, Wistar rats; conditions: for Percentage of inhibition: % PPI; for Percentage of inhibition / Acoustic tone alone / Startle amplitude on prepulse + pulse trials: pretreatment ralfinamide methanesulfonate 90 mg/kg oral, mean ± SEM; for Acoustic tone alone / Startle amplitude on prepulse + pulse trials: startle amplitude
Description: Prepulse inhibition (PPI) is a cross-species phenomenon (i.e., it is present in mammals ranging from mice to humans), yet it is relatively impaired among schizophrenic patients. The PPI procedure is used to assess the subject's ability to “gate” or filter environmental information. In the acoustic (startle model) of sensorimotor gating a weak acoustic stimulus (prepulse) decrease the reflexive flinching response (startle) produced by a second, more intense, stimulus (the pulse). Drugs like dizocilpine (MK-801) or amphetamine disrupt PPI and represent an animal model of schizophrenia; antipsychotic drugs are able to prevent PPI deficit. The test is quite useful to screen potential antipsychotic drugs.
Methods: Male Wistar rats, weighing 200-300 g were used. Apparatus: All startle and PPI testing has been performed in four startle chambers. Each ventilated illuminated and sound proof chamber contained a clear non-restrictive Plexiglas cylinder resting on a platform. A high-frequency loudspeaker inside the chamber produced both a continuous background noise of 70 dB and the various acoustic stimuli. Vibrations of the Plexiglas cylinder caused by the whole-body startle response of the animal were transduced into analogue signals by a piezoelectric unit attached to the platform. These signals were then digitized and stored by a computer. Sixty-five readings were taken at 1-ms intervals starting at stimulus onset, and the average amplitude was used to determine the acoustic startle response. Sound levels is given in dB.
Prepulse inhibition session: After 5 min of habituation (background white noise, 70 dB), two types of acoustic stimuli were used: acoustic stimulus alone (120 dB, 40 ms) or the stimulus proceeded by a prepulse (76, 79, 82 dB, 40 ms) applied 100 ms before the stimulus. During each experimental session 20 trials of each type were presented with interstimulus interval of 20 s. The amplitudes were averaged for each individual animal, separately for both types of trials (stimulus alone or stimulus preceded by the prepulse). The degree of prepulse inhibition was shown as a percentage score (% PPI) calculated as […] a difference between the amplitude of the pulse-alone (P) and the amplitude of the prepulse+pulse trials (PP+P), divided by the amplitude of the pulse-alone trials and multiplied by 100. […] Substances and treatments: MK-801 0.2 mg/kg was dissolved in saline and was given i.p. In each experiment, […] were assigned to receive either compounds of the disclosure or vehicle and were tested in the PPI session using a between-subjects design. The order of drug treatment for the first experiment was test-compound, followed by MK-801; for the second experiment rats received test-compound and then amphetamine. Statistical Analysis: Multiple ANOVA was conducted followed by Dunnett's post hoc test.

marble burying behaviour = test: Marble Burying test; assay type: in vivo; conditions: 80 mg/kg po; 30 min before test; CD1 mice; FIG. 1
Description: The Marble Burying Test is considered an animal model of anxiety/obsessive-compulsive disorder (OCD). Mice which are placed individually in a cage containing a number of glass marbles spontaneously tend to bury the glass marbles present.
Several compounds which attenuate anxiety, depression, psychosis or obsessive-compulsive disorders affect this behaviour reducing the number of marbles buried. Therefore the test has predictive validity for anti-anxiety and anti-OCD potential compounds.
CD1 mice were injected with ralfinamide at the doses of 10, 30, 60 and 80 mg/kg, po; fluoxetine (FLX) at 10 mg/kg, sc or saline and returned to their home cage. After 30 min (ralfinamide) or 60 min (fluoxetine), mice were individually placed in a new cage contained 12 evenly spaced glass marbles. After 30 min mice were removed from the cages and the number of glasses buried for at least two-thirds in the sawdust was counted.
One-way ANOVA followed by Bonferroni's multiple comparison test; n=6-8 mice per group *p<0.05; p***<0.001 versus control group

[2] = test system: d-amphetamine-induced PPI impairment; test: Amphetamine-induced PPI deficit (ralfinamide and haloperidol association); assay type: in vivo; conditions: ralfinamide methanesulfonate per se 60 mg/kg p.o.; d-amphetamine 2.5 mg/kg s.c.; rats
Method: A PPI test, carried out according to the method described in Example 4, was performed in rats.

Dopamine D4.4 = target: T1, Dopamine D4.4 (Homo sapiens, UniProt P21917); test: Dopamine receptor radioligand binding assay; conditions: inhibition of specific binding
T1 sequence (P21917 1-419): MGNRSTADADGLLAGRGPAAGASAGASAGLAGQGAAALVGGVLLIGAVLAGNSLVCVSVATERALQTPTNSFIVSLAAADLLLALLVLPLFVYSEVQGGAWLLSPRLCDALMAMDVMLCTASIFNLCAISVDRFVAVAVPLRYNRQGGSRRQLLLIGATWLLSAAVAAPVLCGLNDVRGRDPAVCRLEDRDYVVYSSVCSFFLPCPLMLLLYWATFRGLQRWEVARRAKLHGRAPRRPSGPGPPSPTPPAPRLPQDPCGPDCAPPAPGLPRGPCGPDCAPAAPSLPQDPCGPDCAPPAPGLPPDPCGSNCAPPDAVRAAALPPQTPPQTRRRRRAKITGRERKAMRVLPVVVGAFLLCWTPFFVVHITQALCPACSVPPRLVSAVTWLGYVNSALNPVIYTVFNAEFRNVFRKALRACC
Method: (§1) The assays were performed, under standard conditions, as described in the following publications: Dearry A et al., Nature; 1990; 347: 72-76; Bunzow J R et al., Nature; 1988; 336: 783-787; Sokoloff P. et al., Nature; 1990; 347: 146-151; Van Tol H H M et al., Nature; 1991; 350: 610-614; Van Tol H H M et al., Nature; 1992; 358: 149-152; Sibley D R et al., Trend Pharmacol. Sci.; 1992; 13:61-69.
(§2) Biochemical assay results are presented as the percent inhibition of specific bindings at a single compound concentration. Responses are considered significant for binding activities >50%.

Dopamine D1 = Dopamine D1 (Homo sapiens, UniProt P21728); test: Dopamine receptor radioligand binding assay; conditions: inhibition of specific binding
Method: as §1, §2

Dopamine D5 = Dopamine D5 (Homo sapiens, UniProt P21918); test: Dopamine receptor radioligand binding assay; conditions: inhibition of specific binding
Method: as §1, §2

Dopamine D2S = Dopamine D2S (Homo sapiens, UniProt P14416); test: Dopamine receptor radioligand binding assay; conditions: inhibition of specific binding
Method: as §1, §2

Dopamine D3 = Dopamine D3 (Homo sapiens, UniProt P35462); test: Dopamine receptor radioligand binding assay; conditions: inhibition of specific binding
Method: as §1, §2

Dopamine D4.2 = test: Dopamine receptor radioligand binding assay; conditions: inhibition of specific binding
Method: as §1, §2

Dopamine D2L = Dopamine D2L (Homo sapiens, UniProt P14416); test: Dopamine receptor radioligand binding assay; conditions: inhibition of specific binding
Method: as §1, §2

Dopamine D4.7 = test: Dopamine receptor radioligand binding assay; conditions: inhibition of specific binding
Method: as §1, §2

[3] = treatment MK-801 0.2 mg/kg i.p.

Chain of Dopamine D1 (P21728 whole entry): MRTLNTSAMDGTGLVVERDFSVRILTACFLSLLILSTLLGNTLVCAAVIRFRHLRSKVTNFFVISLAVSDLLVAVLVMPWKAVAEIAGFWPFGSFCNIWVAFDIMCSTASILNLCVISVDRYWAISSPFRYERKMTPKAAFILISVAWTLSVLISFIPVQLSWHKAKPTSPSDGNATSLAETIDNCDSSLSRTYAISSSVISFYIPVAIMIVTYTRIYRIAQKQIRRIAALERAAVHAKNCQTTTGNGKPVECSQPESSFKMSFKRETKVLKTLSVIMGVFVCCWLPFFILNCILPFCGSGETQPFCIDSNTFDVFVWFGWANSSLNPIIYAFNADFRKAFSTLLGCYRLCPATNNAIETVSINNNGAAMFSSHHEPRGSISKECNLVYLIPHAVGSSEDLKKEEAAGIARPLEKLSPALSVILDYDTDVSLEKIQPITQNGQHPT
Chain of Dopamine D5 (P21918 whole entry): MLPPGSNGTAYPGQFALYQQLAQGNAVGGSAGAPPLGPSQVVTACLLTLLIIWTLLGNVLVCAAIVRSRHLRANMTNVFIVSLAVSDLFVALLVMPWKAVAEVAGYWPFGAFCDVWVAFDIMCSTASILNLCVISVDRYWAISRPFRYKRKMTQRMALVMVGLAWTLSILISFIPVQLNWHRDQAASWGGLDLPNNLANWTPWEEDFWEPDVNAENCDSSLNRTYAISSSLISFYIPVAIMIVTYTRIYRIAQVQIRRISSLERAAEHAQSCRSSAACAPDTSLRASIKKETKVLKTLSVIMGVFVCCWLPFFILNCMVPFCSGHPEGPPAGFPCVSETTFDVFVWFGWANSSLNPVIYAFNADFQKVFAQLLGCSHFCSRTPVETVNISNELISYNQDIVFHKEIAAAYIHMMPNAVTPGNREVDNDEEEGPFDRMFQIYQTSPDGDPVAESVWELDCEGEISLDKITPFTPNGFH
Chain of Dopamine D2L (P14416 whole entry): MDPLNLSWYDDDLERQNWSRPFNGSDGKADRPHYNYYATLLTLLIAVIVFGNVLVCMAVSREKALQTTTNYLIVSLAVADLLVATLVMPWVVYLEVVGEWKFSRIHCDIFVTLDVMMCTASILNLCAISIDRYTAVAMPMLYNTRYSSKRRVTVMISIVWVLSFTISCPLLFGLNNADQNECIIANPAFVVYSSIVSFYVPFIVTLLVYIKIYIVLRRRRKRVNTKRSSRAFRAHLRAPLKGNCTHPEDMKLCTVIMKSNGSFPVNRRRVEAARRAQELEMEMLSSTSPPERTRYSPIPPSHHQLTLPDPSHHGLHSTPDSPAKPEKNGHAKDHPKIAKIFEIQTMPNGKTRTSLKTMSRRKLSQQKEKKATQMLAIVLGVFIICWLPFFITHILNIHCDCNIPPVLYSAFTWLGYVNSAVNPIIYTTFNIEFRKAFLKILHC
Chain of Dopamine D3 (P35462 whole entry): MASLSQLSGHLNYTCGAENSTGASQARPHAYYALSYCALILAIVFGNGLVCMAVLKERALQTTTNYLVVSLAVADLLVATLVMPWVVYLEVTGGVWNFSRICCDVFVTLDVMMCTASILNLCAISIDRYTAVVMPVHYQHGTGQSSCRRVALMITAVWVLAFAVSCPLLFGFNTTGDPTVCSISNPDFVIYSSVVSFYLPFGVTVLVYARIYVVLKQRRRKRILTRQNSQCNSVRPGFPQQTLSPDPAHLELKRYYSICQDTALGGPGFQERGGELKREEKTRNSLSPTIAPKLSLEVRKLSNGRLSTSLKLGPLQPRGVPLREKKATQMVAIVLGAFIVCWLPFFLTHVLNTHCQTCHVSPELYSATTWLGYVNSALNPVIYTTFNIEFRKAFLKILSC
Chain of Dopamine D2S (P14416 1-414 isoform P14416-2): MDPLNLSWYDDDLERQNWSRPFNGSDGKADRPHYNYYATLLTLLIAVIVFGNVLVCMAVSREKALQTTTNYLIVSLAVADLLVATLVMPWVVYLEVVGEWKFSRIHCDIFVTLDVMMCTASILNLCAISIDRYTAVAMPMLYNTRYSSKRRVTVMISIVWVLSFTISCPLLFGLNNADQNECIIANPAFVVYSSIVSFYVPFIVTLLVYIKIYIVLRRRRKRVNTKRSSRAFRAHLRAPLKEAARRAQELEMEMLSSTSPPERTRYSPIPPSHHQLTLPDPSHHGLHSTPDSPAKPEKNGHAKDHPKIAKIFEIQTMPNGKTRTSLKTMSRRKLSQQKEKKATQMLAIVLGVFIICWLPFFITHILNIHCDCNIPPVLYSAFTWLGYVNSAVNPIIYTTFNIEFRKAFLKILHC

For C[C@H](NCc1ccc(OCc2ccccc2F)cc1)C(N)=O [Ralfinamide methanesulfonate, (S)-(+)-2-[4-(2-fluorobenzyloxy)benzylamino]propanamide], the Percentage of inhibition [1, 3] was 21.92 ± 0.40 %, the Percentage of inhibition ([1]; treatment vehicle) was 44.16 ± 3.54% and the “Reversing the disruptive effect of MK-801 on PPI” value ([1]; orally, 90 mg/kg) was “active”. For the same compound, the Acoustic tone alone [1, 3] was 38.50 ± 1.36, the “Startle amplitude on prepulse + pulse trials” value [1, 3] was 30.00 ± 0.90 and the Acoustic tone alone ([1]; treatment vehicle) was 35.50 ± 0.45. The “Startle amplitude on prepulse + pulse trials” value ([1]; treatment vehicle) was 20.00 ± 1.51, the “Number of buried marbles” value (marble burying behaviour) was “significantly reduces” and the “Reversal of PPI impairment induced by d-amphetamine” value [2] was “did not reverse”. The “% Inhibition at 10 μm” value (Dopamine D4.4) was “no inhibition”, the “% Inhibition at 10 μm” value (Dopamine D1) was “no inhibition” and the “% Inhibition at 10 μm” value (Dopamine D5) was “no inhibition”. For the same compound, the “% Inhibition at 10 μm” value (Dopamine D2S) was “no inhibition”, the “% Inhibition at 10 μm” value (Dopamine D3) was 7% and the “% Inhibition at 10 μm” value (Dopamine D4.2) was 1%. For the same compound, the “% Inhibition at 10 μm” value (Dopamine D2L) was “no inhibition” and the “% Inhibition at 10 μm” value (Dopamine D4.7) was “no inhibition”.
